In patent US6358885B1, “Substituted phenylheterocyclic herbicides” (Mississippi State University, priority 1992, dated 2002):

How the values were obtained:
giant foxtail [1] = assay: Test C preemergence/postemergence greenhouse plant response rating 0 to 100; assay type: in vivo, Setaria faberii; conditions: POSTEMERGENCE
Method in brief: (§1)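 Compounds in non-phytotoxic solvent went onto sandy loam before emergence (seeded one day earlier) or onto plants at the one-to-four leaf stage. Duck salad was treated via flood water (~2.5 cm, maintained) over silt loam.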

barley = assay: as above; assay type: in vivo, Hordeum vulgare; conditions: POSTEMERGENCE
Method in brief: as §1

cotton [2] = assay: Test B preemergence/postemergence greenhouse plant response rating 0 to 10; assay type: in vivo, Gossypium hirsutum; conditions: for Plant response rating, Cotton: 0 to 10 scale
Method in brief: (§2)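 Test chemicals, dissolved in a non-phytotoxic solvent, were applied to soil at planting and, at the same time, over foliage of seedlings at the one to four leaf stage.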

bedstraw = assay: as above; assay type: in vivo, Galium aparine; conditions: POSTEMERGENCE
Method in brief: as §2

chickweed = assay: Test C preemergence/postemergence greenhouse plant response rating 0 to 100; assay type: in vivo, Stellaria media; conditions: POSTEMERGENCE
Method in brief: as §1

giant foxtail [3] = assay: Test B preemergence/postemergence greenhouse plant response rating 0 to 10; assay type: in vivo, Setaria faberii; conditions: 0 to 10 scale
Method in brief: as §2

soybean = assay: Test C preemergence/postemergence greenhouse plant response rating 0 to 100; assay type: in vivo, Glycine max; conditions: POSTEMERGENCE
Method in brief: as §1

lambsquarters = assay: as above; assay type: in vivo, Chenopodium album; conditions: POSTEMERGENCE
Method in brief: as §1

morningglory = assay: Test B preemergence/postemergence greenhouse plant response rating 0 to 10; assay type: in vivo, Ipomoea hederacea; conditions: 0 to 10 scale
Method in brief: as §2

umbrella sedge = assay: Test C flood test plant response rating 0 to 100; assay type: in vivo, Cyperus difformis
Source text: (§3) The compounds evaluated in this test were formulated in a non-phytoxic solvent and applied to the soil surface before plant seedlings emerged (preemergence application), to water that covered the soil surface (flood application), and to plants that were in the one-to-four leaf stage (postemergence application). A sandy loam soil was used for the preemergence and postemergence tests, while a silt loam soil was used in the flood test. Water depth was approximately 2.5 cm for the flood test and was maintained at this level for the duration of the test. Plant species in the preemergence and postemergence tests consisted of barley (Hordeum vulgare), bedstraw (Galium aparine), blackgrass (Alopecurus myosuroides), chickweed (Stellaria media), corn (Zea mays), cotton (Gossypium hirsutum), crabgrass (Digitaria sanguinalis), downy brome (Bromus tectorum), giant foxtail (Setaria faberii), lambsquarters (Chenopodium album), morningglory (Ipomoea hederacea), pigweed ([…]), rape (Brassica napus), ryegrass (Lolium multiflorum), sorghum (Sorghum bicolor), soybean (Glycine max), speedwell (Veronica persica), sugar beet (Beta vulgaris), velvetleaf (Abutilon theophrasti), wheat (Triticum aestivum), wild buckwheat (Polygonum convolvulus), and wild oat (Avena fatua). All plant species were planted one day before application of the compound for the preemergence portion-of this test. Plantings of these species were adjusted to produce plants of appropriate size for the post-emergence portion of the test. […] All plant species were grown using normal greenhouse practices. Visual evaluations of injury expressed on treated plants, when compared to untreated controls, were recorded approximately fourteen to twenty one days after application of the test compound. […] A dash (-) response means no test result.

rape = assay: Test B preemergence/postemergence greenhouse plant response rating 0 to 10; assay type: in vivo, Brassica napus; conditions: 0 to 10 scale
Method in brief: as §2

cocklebur = assay: as above; assay type: in vivo, Xanthium pensylvanicum; conditions: for Plant response rating, Cocklebur: 0 to 10 scale
Method in brief: as §2

crabgrass = assay: as above; assay type: in vivo, Digitaria spp.; conditions: for Plant response rating, Crabgrass: 0 to 10 scale
Method in brief: as §2

pigweed = assay: Test C preemergence/postemergence greenhouse plant response rating 0 to 100; assay type: in vivo, Amaranthusretroflexus; conditions: POSTEMERGENCE
Method in brief: as §1

cotton [4] = assay: as above; assay type: in vivo, Gossypium hirsutum; conditions: POSTEMERGENCE
Method in brief: as §1

duck salad = assay: Test C flood test plant response rating 0 to 100; assay type: in vivo, Heteranthera limosa
Source text: as §3

cheatgrass = assay: Test B preemergence/postemergence greenhouse plant response rating 0 to 10; assay type: in vivo, Bromus secalinus; conditions: for Plant response rating, Cheatgrass: 0 to 10 scale
Method in brief: as §2

velvetleaf = assay: Test C preemergence/postemergence greenhouse plant response rating 0 to 100; assay type: in vivo, Abutilon theophrasti; conditions: POSTEMERGENCE
Method in brief: as §1

[5] = POSTEMERGENCE section, flood test, Rate 1 g/ha
[6] = POSTEMERGENCE section, flood test, Rate 4 g/ha
[7] = Rate 16 g/ha, under POSTEMERGENCE head (flood test species)
[8] = flood test species listed under POSTEMERGENCE, 62 g/ha, 0 to 100 scale

CCCN1C(=O)COc2cc(F)c(-c3nn4c(c3Cl)CCCC4)cc21 [Compound 32]
Plant response rating, Giant foxtail (giant foxtail [1]; 62 g/ha, 0 to 100 scale): 70 | Plant response rating (0 to 100), Giant foxtail (giant foxtail [1]; Rate 1 g/ha): 20 | Plant response rating (0 to 100), Giant foxtail (giant foxtail [1]; Rate 4 g/ha): 30 | Plant response rating (0 to 100), Giant foxtail (giant foxtail [1]; Rate 16 g/ha): 50 | Plant response rating Barley Igri (barley; 62 g/ha, 0 to 100 scale): 50 | Plant response rating (0 to 100), Barley Igri (barley; Rate 1 g/ha): 20 | Plant response rating (0 to 100), Barley Igri (barley; Rate 4 g/ha): 30 | Plant response rating (0 to 100), Barley Igri (barley; Rate 16 g/ha): 30 | Plant response rating, Cotton (cotton [2]; POSTEMERGENCE, Rate 10 g/ha): 10 | Plant response rating (0 to 10 scale), Cotton (cotton [2]; POSTEMERGENCE, Rate 50 g/ha): 10 | Plant response rating, Cotton (cotton [2]; PREEMERGENCE, Rate 10 g/ha): 0 | Plant response rating, Cotton (cotton [2]; PREEMERGENCE, Rate 50 g/ha): 8 | Plant response rating, Bedstraw (bedstraw; Rate 10 g/ha, 0 to 10 scale): 8 | Plant response rating (0 to 10 scale), Bedstraw (bedstraw; Rate 50 g/ha): 10 | Plant response rating, Chickweed (chickweed; 62 g/ha, 0 to 100 scale): 100 | Plant response rating (0 to 100), Chickweed (chickweed; Rate 1 g/ha): 30 | Plant response rating (0 to 100), Chickweed (chickweed; Rate 4 g/ha): 60 | Plant response rating (0 to 100), Chickweed (chickweed; Rate 16 g/ha): 90 | Plant response rating, Giant foxtail (giant foxtail [3]; POSTEMERGENCE, Rate 10 g/ha): 4 | Plant response rating, Giant foxtail (giant foxtail [3]; POSTEMERGENCE, Rate 50 g/ha): 5 | Plant response rating, Giant foxtail (giant foxtail [3]; PREEMERGENCE, Rate 10 g/ha): 2 | Plant response rating, Giant foxtail (giant foxtail [3]; PREEMERGENCE, Rate 50 g/ha): 4 | Plant response rating, Soybean (soybean; 62 g/ha, 0 to 100 scale): 90 | Plant response rating (0 to 100), Soybean (soybean; Rate 1 g/ha): 20 | Plant response rating (0 to 100), Soybean (soybean; Rate 4 g/ha): 50 | Plant response rating (0 to 100), Soybean (soybean; Rate 16 g/ha): 70 | Plant response rating Lambsquarters (lambsquarters; 62 g/ha, 0 to 100 scale): 100 | Plant response rating (0 to 100), Lambsquarters (lambsquarters; Rate 1 g/ha): 70 | Plant response rating (0 to 100), Lambsquarters (lambsquarters; Rate 4 g/ha): 80 | Plant response rating (0 to 100), Lambsquarters (lambsquarters; Rate 16 g/ha): 100 | Plant response rating, Morningglory (morningglory; POSTEMERGENCE, Rate 10 g/ha): 10 | Plant response rating, Morningglory (morningglory; POSTEMERGENCE, Rate 50 g/ha): 10 | Plant response rating, Morningglory (morningglory; PREEMERGENCE, Rate 50 g/ha): 2 | Plant response rating (0 to 100), Umbrella sedge (umbrella sedge; [5]): 0 | Plant response rating (0 to 100), Umbrella sedge (umbrella sedge; [6]): 0 | Plant response rating (0 to 100), Umbrella sedge (umbrella sedge; [7]): 20 | Plant response rating Umbrella sedge (umbrella sedge; [8]): 60 | Plant response rating, Rape (rape; POSTEMERGENCE, Rate 10 g/ha): 6 | Plant response rating, Rape (rape; POSTEMERGENCE, Rate 50 g/ha): 10 | Plant response rating, Rape (rape; PREEMERGENCE, Rate 50 g/ha): 2 | Plant response rating, Cocklebur (cocklebur; POSTEMERGENCE, Rate 10 g/ha): 9 | Plant response rating (0 to 10 scale), Cocklebur (cocklebur; POSTEMERGENCE, Rate 50 g/ha): 10 | Plant response rating, Cocklebur (cocklebur; PREEMERGENCE, Rate 10 g/ha): 0 | Plant response rating, Cocklebur (cocklebur; PREEMERGENCE, Rate 50 g/ha): 5 | Plant response rating, Crabgrass (crabgrass; POSTEMERGENCE, Rate 10 g/ha): 3 | Plant response rating (0 to 10 scale), Crabgrass (crabgrass; POSTEMERGENCE, Rate 50 g/ha): 5 | Plant response rating, Crabgrass (crabgrass; PREEMERGENCE, Rate 10 g/ha): 2 | Plant response rating, Crabgrass (crabgrass; PREEMERGENCE, Rate 50 g/ha): 3 | Plant response rating Pigweed (pigweed; 62 g/ha, 0 to 100 scale): 100 | Plant response rating (0 to 100), Pigweed (pigweed; Rate 1 g/ha): 95 | Plant response rating (0 to 100), Pigweed (pigweed; Rate 4 g/ha): 100 | Plant response rating (0 to 100), Pigweed (pigweed; Rate 16 g/ha): 100 | Plant response rating, Cotton (cotton [4]; 62 g/ha, 0 to 100 scale): 100 | Plant response rating (0 to 100), Cotton (cotton [4]; Rate 1 g/ha): 95 | Plant response rating (0 to 100), Cotton (cotton [4]; Rate 4 g/ha): 100 | Plant response rating (0 to 100), Cotton (cotton [4]; Rate 16 g/ha): 100 | Plant response rating (0 to 100), Duck salad (duck salad; [5]): 0 | Plant response rating (0 to 100), Duck salad (duck salad; [6]): 0 | Plant response rating (0 to 100), Duck salad (duck salad; [7]): 30 | Plant response rating Duck salad (duck salad; [8]): 60 | Plant response rating, Cheatgrass (cheatgrass; POSTEMERGENCE, Rate 10 g/ha): 4 | Plant response rating (0 to 10 scale), Cheatgrass (cheatgrass; POSTEMERGENCE, Rate 50 g/ha): 5 | Plant response rating, Cheatgrass (cheatgrass; PREEMERGENCE, Rate 10 g/ha): 2 | Plant response rating, Cheatgrass (cheatgrass; PREEMERGENCE, Rate 50 g/ha): 5 | Plant response rating, Velvetleaf (velvetleaf; 62 g/ha, 0 to 100 scale): 100 | Plant response rating (0 to 100), Velvetleaf (velvetleaf; Rate 1 g/ha): 100 | Plant response rating (0 to 100), Velvetleaf (velvetleaf; Rate 16 g/ha): 100
